Patent US20090062253A1, “HETEROCYCLODIAZEPINE CANNABINOID RECEPTOR MODULATORS FOR TREATMENT OF DISEASE” (KALYPSYS, INC., priority 2007, published 2009)

Legend:
[1] = target: T1, human cannabinoid receptor type 1 (Homo sapiens, UniProt P21554); test: Human CB1 Radioligand Binding Assay (basis of selectivity CB2 vs. CB1)
T1 construct: purchased Perkin Elmer RBHCB1M; host or cells: HEK 293 EBNA cells
Description: (§1) This receptor binding filtration assay measures the receptor-ligand interactions of compounds by measuring ability to compete with a radiolabeled control ligand. Reactions were performed in 96 deep-well plate (Costar 3961) with a final volume of 600 ul. Compounds were added to each well either in single point (10 uM final) or dose-response. Compounds were delivered in DMSO or further diluted in incubation buffer to a final assay DMSO concentration of 1%. Incubation buffer (50 mM Tris-HCl pH 7.4, 2.5 mM EGTA, 5 mM MgCl2, 5.0 mg/ml fatty acid free BSA) was added to each well. Following buffer addition, [^3H] CP-55,940 was added. Tritiated CP-55,940 (Perkin Elmer) was used at the Kd determined from prior saturation binding experiments conducted on each lot of membranes. Membrane preparations from stably transfected CHO CB2 cells were added and the reaction was incubated for 90 minutes at 30° C. Unifilter GF/C filtration plates (Perkin Elmer) were pre-wet with 0.05% polyethylenimine. Samples were transferred to Unifilter plates and separation of unbound radioligand was achieved using a vacuum manifold (Millipore). Following thorough washing with 5 ml/well ice-cold wash buffer (50 mM Tris-HCl pH 7.4, 2.5 mM EGTA, 5 mM MgCl2, 0.5 mg/ml fatty acid free BSA), filterplates were dried completely. Betaplate Scint Scintillation cocktail (25 ul, Perkin Elmer) was applied and plates were read using Microbeta Trilux (Wallac). Data analysis was performed in Spotfire. Activity of the positive control (100 nM CP-55,940) was set as 100% efficacy.
The CB1 binding assay was performed as described above except that HEK 293 EBNA cells expressing human cannabinoid receptor type 1 (Perkin Elmer cat #RBHCB1M) were used according the manufacturer's instructions. The incubation buffer was composed of 50 mM Tris-HCl pH 7.4, 2.5 mM EDTA, 5 mM MgCl2, 5.0 mg/ml fatty acid free BSA and the wash buffer was composed of 50 mM Tris-HCl pH 7.4, 2.5 mM EDTA, 5 mM MgCl2, 0.5 mg/ml fatty acid free BSA. Activity of the positive control (100 nM CP-55,940) was set as 100% efficacy.

[2] = target: T2, Human CB2 (Homo sapiens, UniProt P34972); test: Human CB2 Radioligand Binding Assay; details: membranes from stably transfected CHO CB2 cells; competition with [3H] CP-55,940; read-out: CB2 Ligand Binding Asssay
T2 construct: expressed in transfected cells; membrane preparation
T2 sequence (P34972 whole entry): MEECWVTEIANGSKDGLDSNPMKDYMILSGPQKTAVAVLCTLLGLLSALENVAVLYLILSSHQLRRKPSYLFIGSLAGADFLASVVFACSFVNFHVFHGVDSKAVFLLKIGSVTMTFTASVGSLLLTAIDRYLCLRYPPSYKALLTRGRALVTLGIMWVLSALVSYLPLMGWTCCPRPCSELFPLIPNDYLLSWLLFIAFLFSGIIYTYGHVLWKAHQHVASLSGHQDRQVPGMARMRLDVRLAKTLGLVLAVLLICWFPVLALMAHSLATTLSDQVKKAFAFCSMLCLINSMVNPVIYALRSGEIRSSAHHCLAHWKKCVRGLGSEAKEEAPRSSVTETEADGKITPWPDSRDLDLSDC
Description: as §1
Stable recombinant Human CB2-CHO cell membranes were prepared as follows: Chinese Hamster Ovarian (CHO) cells stably expressing human cannabinoid receptor type 2 were grown to ˜90% confluence in 15×100 mm culture dishes under puromycin selection (5 ug/ml) Cells were harvested from culture flasks using a cell scraper, were washed once with cold phosphate-buffered saline (calcium and magnesium free) and pelleted by centrifugation at 400 g for 5 min at 4° C. Cell pellet was washed once with cold phosphate-buffered saline and centrifuged again at 400×g for 5 min at 4° C. The pellet was suspended in ice-cold lysis buffer (10 mM Tris-HCl, 0.1 mM EDTA, containing […], pH 7.5) and homogenized in a chilled 7 ml glass dounce homogenizer using 50 strokes. The homogenate was centrifuged at 400 g for 15 min at 4° C. The cloudy supernatant was collected and centrifuged at 41000 g for 30 min at 4° C. The resulting pellet was washed with ice-cold sucrose-free lysis buffer and centrifuged again at 41000 g for 30 min at 4° C. The membrane pellet was suspended in sucrose-free storage buffer (10 mm Tris-HCl, 0.1 mM EDTA, pH 7.5) to a concentration of 2-3 mg protein/ml. Aliquots were flash frozen in liquid nitrogen and stored at −80° C. Concentration was determined using Dc protein assay kit (Bio-Rad).

T1 sequence (P21554 whole entry): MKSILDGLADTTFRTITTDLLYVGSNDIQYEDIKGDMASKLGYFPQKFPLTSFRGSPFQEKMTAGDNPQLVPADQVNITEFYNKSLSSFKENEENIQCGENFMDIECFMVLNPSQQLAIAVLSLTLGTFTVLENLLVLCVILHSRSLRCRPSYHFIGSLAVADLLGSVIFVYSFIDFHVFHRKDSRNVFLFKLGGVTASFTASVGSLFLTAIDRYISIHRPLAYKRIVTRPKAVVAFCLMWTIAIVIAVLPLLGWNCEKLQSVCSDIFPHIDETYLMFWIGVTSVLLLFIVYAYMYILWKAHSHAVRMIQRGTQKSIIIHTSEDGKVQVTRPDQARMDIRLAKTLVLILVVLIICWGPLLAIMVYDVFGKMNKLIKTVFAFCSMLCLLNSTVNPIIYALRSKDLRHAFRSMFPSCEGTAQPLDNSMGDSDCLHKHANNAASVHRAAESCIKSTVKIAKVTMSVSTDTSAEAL

Row | Selectivity, CB2 vs. CB1 [1] | IC50 (radioligand displacement) [2] | Structure (SMILES)
1 | − (− indicates < 10-fold) | < 1000 nM | CC(C)(C)c1ccc(C2=C(C(=O)Nc3ccc(C(F)(F)F)cc3)CCn3cccc32)cc1 [Example 132, 8-(4-tert-Butylphenyl)-N-(4-(trifluoromethyl)phenyl)-5,6-dihydroindolizine-7-carboxamide]
2 | − (− indicates < 10-fold) | > 1000 nM | O=C(Nc1ccc(OC(F)(F)F)cc1)C1CCn2cccc2C1c1ccccc1 (mixture of isomers) [Example 104, 8-Phenyl-N-(4-(trifluoromethoxy)phenyl)-5,6,7,8-tetrahydroindolizine-7-carboxamide]
3 | − (− indicates < 10-fold) | < 1000 nM | CC(C)(C)c1ccc(C2c3cccn3CCCC2NC(=O)Nc2ccc(F)c(F)c2)cc1 (mixture of isomers) [Example 117, 1-(9-(4-tert-Butylphenyl)-6,7,8,9-tetrahydro-5H-pyrrolo[1,2-a]azepin-8-yl)-3-(3,4-difluorophenyl)urea]
4 | − (− indicates < 10-fold) | > 1000 nM | CC(C)(C)c1cccc(C2c3cccn3CCCN2C(=O)Nc2ccc(Cl)cc2Cl)c1 (stereo not drawn) [Example 19, 1-(3-tert-Butylphenyl)-N-(2,4-dichlorophenyl)-4,5-dihydro-1H-pyrrolo[1,2-a][1,4]diazepine-2(3H)-carboxamide]
5 | + (+ indicates > 10-fold) | > 1000 nM | CC(C)(C)c1ccc(C2c3cccnc3OCCN2C(=O)Nc2ccc(F)c(F)c2)cc1 (stereo not drawn) [Example 139, 5-(4-tert-Butylphenyl)-N-(3,4-difluorophenyl)-2,3-dihydropyrido[3,2-f][1,4]oxazepine-4(5H)-carboxamide]
6 | + (+ indicates > 10-fold) | < 1000 nM | CC(C)(C)c1ccc(C2=C(NC(=O)Nc3ccc(F)cc3F)CCCn3cccc32)cc1 [Example 84, (E)-1-(9-(4-tert-Butylphenyl)-6,7-dihydro-5H-pyrrolo[1,2-a]azepin-8-yl)-3-(2,4-difluorophenyl)urea]
7 | − (− indicates < 10-fold) | < 1000 nM | CC(C)(C)c1ccc(C2c3cccn3CCCC2C(=O)Nc2ccc(C(F)(F)F)cc2)cc1 (stereo not drawn) [Example 93, 9-(4-tert-Butylphenyl)-N-(4-(trifluoromethyl)phenyl)-6,7,8,9-tetrahydro-5H-pyrrolo[1,2-a]azepine-8-carboxamide]
8 | − (− indicates < 10-fold) | > 1000 nM | CC(C)(C)c1ccc(C2c3cccn3CCCN2C(=O)Cc2c(F)cccc2F)cc1 (stereo not drawn) [Example 51, 1-(1-(4-tert-Butylphenyl)-4,5-dihydro-1H-pyrrolo[1,2-a][1,4]diazepin-2(3H)-yl)-2-(2,6-difluorophenyl)ethanone]
9 | + (+ indicates > 10-fold) | < 1000 nM | CC(C)(C)C1CCC(C2c3cccn3CCCN2C(=O)Nc2ccc(F)cc2F)CC1 (stereo not drawn) [Example 34, 1-(4-tert-Butylcyclohexyl)-N-(2,4-difluorophenyl)-4,5-dihydro-1H-pyrrolo[1,2-a][1,4]diazepine-2(3H)-carboxamide]
10 | − (− indicates < 10-fold) | > 1000 nM | CC(C)(C)c1ccc(C2=C(C(=O)Nc3ccc(Cl)cc3Cl)CCCn3cncc32)cc1 [Example 80, (E)-9-(4-tert-Butylphenyl)-N-(2,4-dichlorophenyl)-6,7-dihydro-5H-imidazo[1,5-a]azepine-8-carboxamide]
11 | − (− indicates < 10-fold) | > 1000 nM | O=C(Nc1ccc(Cl)cc1)[C@H]1CCCn2cccc2[C@@H]1c1ccccc1 (relative stereo) [Example 109, (8,9-trans)-N-(4-Chlorophenyl)-9-phenyl-6,7,8,9-tetrahydro-5H-pyrrolo[1,2-a]azepine-8-carboxamide]
12 | − (− indicates < 10-fold) | > 1000 nM | O=C(Nc1ccc(F)c(F)c1)[C@H]1CCCn2cccc2[C@@H]1c1ccccc1 (relative stereo) [Example 107, (8,9-trans)-N-(3,4-Difluorophenyl)-9-phenyl-6,7,8,9-tetrahydro-5H-pyrrolo[1,2-a]azepine-8-carboxamide]
13 | − (− indicates < 10-fold) | > 1000 nM | CC(C)(C)c1ccc(Cc2ccc3n2CCCN3c2nc3ccccc3o2)cc1 [Example 54, 2-(6-(4-tert-Butylbenzyl)-3,4-dihydropyrrolo[1,2-a]pyrimidin-1(2H)-yl)benzo[d]oxazole]
14 | − (− indicates < 10-fold) | < 1000 nM | CC(C)(C)c1ccc(C2c3cccn3CCCC2C(=O)Nc2ccc(OC(F)(F)F)cc2)cc1 (stereo not drawn) [Example 94, 9-(4-tert-Butylphenyl)-N-(4-(trifluoromethoxy)phenyl)-6,7,8,9-tetrahydro-5H-pyrrolo[1,2-a]azepine-8-carboxamide]
15 | − (− indicates < 10-fold) | < 1000 nM | O=C(Nc1ccc(OC(F)(F)F)cc1)[C@H]1CCCn2cccc2[C@H]1c1ccccc1 (relative stereo) [Example 114, (8,9-cis)-9-Phenyl-N-(4-(trifluoromethoxy)phenyl)-6,7,8,9-tetrahydro-5H-pyrrolo[1,2-a]azepine-8-carboxamide]
16 | + (+ indicates > 10-fold) | < 1000 nM | CC(C)(C)c1ccc(C2=C(NC(=O)Nc3ccc(F)c(F)c3)CCCn3cccc32)cc1 [Example 85, (E)-1-(9-(4-tert-Butylphenyl)-6,7-dihydro-5H-pyrrolo[1,2-a]azepin-8-yl)-3-(3,4-difluorophenyl)urea]
17 | – | < 1000 nM | O=C(Nc1ccc(F)cc1F)N1CCCn2cccc2C1c1ccc(OC(F)(F)F)cc1 (stereo not drawn) [Example 15, N-(2,4-Difluorophenyl)-1-(4-(trifluoromethoxy)phenyl)-4,5-dihydro-1H-pyrrolo[1,2-a][1,4]diazepine-2(3H)-carboxamide]
18 | – | > 1000 nM | O=C(Nc1ccc(Cl)cc1Cl)N1CCCn2cccc2C1c1ccc(OC(F)(F)F)cc1 (stereo not drawn) [Example 16]
19 | – | < 1000 nM | Cc1ccc(C2c3cccn3CCCN2C(=O)Nc2ccc(Cl)cc2Cl)cc1 (stereo not drawn) [Example 9, N-(2,4-Dichlorophenyl)-1-p-tolyl-4,5-dihydro-1H-pyrrolo[1,2-a][1,4]diazepine-2(3H)-carboxamide]
20 | – | < 1000 nM | CC(C)(C)c1ccc(C2c3cccn3CCN2C(=O)Nc2ccc(Cl)cc2Cl)cc1 (stereo not drawn) [Example 3, 1-(4-tert-Butylphenyl)-N-(2,4-dichlorophenyl)-3,4-dihydropyrrolo[1,2-a]pyrazine-2(1H)-carboxamide]
21 | – | > 1000 nM | O=C(Nc1ccc(C(F)(F)F)cc1)C1=C(c2ccccc2)c2cccn2CC1 [Example 68, 8-Phenyl-N-(4-(trifluoromethyl)phenyl)-5,6-dihydroindolizine-7-carboxamide]
22 | – | > 1000 nM | CC(C)(C)c1ccc(C2NCCCn3cccc32)cc1 (stereo not drawn) [Example 6, 1-(4-tert-Butylphenyl)-2,3,4,5-tetrahydro-1H-pyrrolo[1,2-a][1,4]diazepine]
23 | – | > 1000 nM | O=C(Nc1ccc(F)cc1F)C1=C(c2ccccc2)c2cccn2CC1 [Example 70, N-(2,4-Difluorophenyl)-8-phenyl-5,6-dihydroindolizine-7-carboxamide]
